Source: patent publication US20120142645A1, “NEUROACTIVE STEROID COMPOSITIONS AND METHODS OF USE FOR LOWERING CHOLESTEROL” (priority 2009, published 2012)

Experiments:
[1] = test system: humans; details: cited from earlier work
[2] = test system: patients with schizophrenia or schizoaffective disorder; assay: BACS cognitive battery; same 8-week adjunctive pregnenolone trial; format: in vivo, human; details: for BACS Composite Z-score / BACS Digit Sequencing raw score / BACS Symbol Coding raw score / BACS Token Motor raw score / BACS Tower of London raw score / BACS Verbal Fluency raw score / BACS Verbal Memory raw score: mean, n = 9; for BACS Composite, difference PG vs placebo in Z-score change: not statistically significant (p=0.22)
Procedure: Study Design and Subjects. Disclosed herein is a placebo-controlled, double-blind, parallel group, randomized trial of adjunctive pregnenolone for the treatment of cognitive and negative symptoms in patients with schizophrenia or schizoaffective disorder. […] Patients received a total of 6 study visits, which took place every two weeks. […] The trial was conducted at a single site, the Durham Veterans Affairs Medical Center in Durham, N.C. The protocol was approved by the local institutional review board and conducted under FDA Investigational New Drug (IND) #71,768. The ClinicalTrials.gov number for this study is NCT00560937.
Cognitive symptoms were assessed by the Brief Assessment of Cognition in Schizophrenia (BAGS; Keefe et al., 2004; Keefe et al., 2008), and the MATRICS Consensus Cognitive Battery (Nuechterlein & Green, 2006; Nuechterlein et al., 2008). It is believed that no clinical trial to date has reported both of these cognitive assessments within the same study. The BAGS and MATRICS batteries were administered two weeks following the screening visit (following the completion of the two-week placebo lead-in phase at Visit 2), and at two 4-week intervals thereafter (at midpoint following randomization at Visit 4 and at the final visit (Visit 6).
The BAGS cognitive battery utilizes the following assessments in the respective targeted domains (Keefe et al., 2004; Keefe et al., 2008): list learning (verbal memory), digit sequencing task (working memory), token motor task (motor speed), verbal fluency (processing speed), symbol coding (attention and processing speed), and the Tower of London test (executive functions/reasoning and problem solving). The MATRICS cognitive battery utilizes the following assessments: Trail Making Test, Part A and the symbol coding subtest of the BAGS (both assess speed of processing), the Hopkins Verbal Learning Test-Revised, immediate recall (three learning trials only) [verbal learning], the Wechsler Memory Scale, 3rd ed., spatial span subtest (working memory, nonverbal), the Letter-Number Span test (working memory, verbal), the Neuropsychological Assessment Battery, mazes subtest (reasoning and problem solving), the Brief Visuospatial Memory Test-Revised (visual learning), the Category Fluency Test (animal naming) [speed of processing], the Mayer-Salovey-Caruso Emotional Intelligence Test, managing emotions branch (social cognition), and the Continuous Performance Test, Identical Pairs version (attention/vigilance) Of note, the symbol coding subtest of the BAGS was administered only once per visit at Visits 2, 4, and 6, although it is a component of both the BAGS and MATRICS cognitive batteries, in order to avoid potentially confounding practice effects.

[3] = Week 0 to Week 8, listed as pregnenolone

For `CC(=O)[C@H]1CC[C@H]2[C@@H]3CC=C4C[C@@H](O)CC[C@]4(C)[C@H]3CC[C@]12C` [PG, pregnenolone], the “Tolerability in healthy volunteers” value ([1]; 15-30 mg/day, no significant side effects compared to placebo, Meieran et al., 2004) is listed as “generally well-tolerated”, the “Safety and tolerability in humans” value ([1]; 25-500 mg/day, studies of the 1940s and 1950s) is listed as “safe and well-tolerated” and the “BACS Composite Z-score” value ([2]; Week 0 (baseline)) is listed as −1.54. The “BACS Digit Sequencing raw score” value ([2]; Week 0 (baseline)) was 15.78, the “BACS Symbol Coding raw score” value ([2]; Week 0 (baseline)) was 36.89 and the “BACS Token Motor raw score” value ([2]; Week 0 (baseline)) was 46.44. The “BACS Tower of London raw score” value ([2]; Week 0 (baseline)) was 13.22, the “BACS Verbal Fluency raw score” value ([2]; Week 0 (baseline)) was 45.78 and the “BACS Verbal Memory raw score” value ([2]; Week 0 (baseline)) was 36.78. For the same compound, the “BACS Composite, change in Z-score” value ([2]; Week 0 to Week 8) was 0.60, the “BACS Digit Sequencing, change in Z-score” value ([2]; Week 0 to Week 8) was 0.50 and the “BACS Digit Sequencing, difference PG vs placebo in Z-score change” value ([2]; Week 0 to Week 8) was 0.25 ± 0.29. For the same compound, the “BACS Symbol Coding, change in Z-score” value ([2]; Week 0 to Week 8) was 0.11, the “BACS Symbol Coding, difference PG vs placebo in Z-score change” value ([2]; Week 0 to Week 8) was −0.16 ± 0.24 and the “BACS Token Motor, change in Z-score” value ([2]; Week 0 to Week 8) was 0.40. For the same compound, the “BACS Token Motor, difference PG vs placebo in Z-score change” value ([2]; Week 0 to Week 8) was 0.42 ± 0.66, the “BACS Tower of London, change in Z-score” value ([2]; Week 0 to Week 8) was 0.82± and the “BACS Tower of London, difference PG vs placebo in Z-score change” value ([2]; Week 0 to Week 8) was 0.61 ± 0.80. For the same compound, the “BACS Verbal Fluency, change in Z-score” value ([2]; Week 0 to Week 8) was −0.05, the “BACS Verbal Fluency, difference PG vs placebo in Z-score change” value ([2]; Week 0 to Week 8) was −0.06 ± 0.32 and the “BACS Verbal Memory, change in Z-score” value ([2]; Week 0 to Week 8) was 0.83. For the same compound, the “BACS Verbal Memory, difference PG vs placebo in Z-score change” value ([2]; Week 0 to Week 8) was 0.61 ± 0.38, the “BACS Composite, change in Z-score” value [2, 3] was 0.60±0.78 and the “BACS Digit Sequencing, difference PG vs placebo in Z-score change” value [2, 3] was 0.25. The “BACS Token Motor, difference PG vs placebo in Z-score change” value [2, 3] was 0.42, the “BACS Tower of London, difference PG vs placebo in Z-score change” value [2, 3] was 0.61 and the “BACS Verbal Memory, difference PG vs placebo in Z-score change” value [2, 3] was 0.61. The “BACS Composite, difference PG vs placebo in Z-score change” value ([2]; Week 0 to Week 8) was 0.38 ± 0.30, the “BACS Composite, difference PG vs placebo in Z-score change” value [2, 3] was “approximately 0.4” and the “BACS Composite Z-score” value ([2]; Week 4) was −1.04. The “BACS Digit Sequencing raw score” value ([2]; Week 4) was 17.22, the “BACS Symbol Coding raw score” value ([2]; Week 4) was 44.78 and the “BACS Token Motor raw score” value ([2]; Week 4) was 55.56. The “BACS Tower of London raw score” value ([2]; Week 4) was 15.22, the “BACS Verbal Fluency raw score” value ([2]; Week 4) was 45.11 and the “BACS Verbal Memory raw score” value ([2]; Week 4) was 39.00. For the same compound, the “BACS Composite Z-score” value ([2]; Week 8) was −0.93, the “BACS Digit Sequencing raw score” value ([2]; Week 8) was 18.44 and the “BACS Symbol Coding raw score” value ([2]; Week 8) was 38.67. For the same compound, the “BACS Token Motor raw score” value ([2]; Week 8) was 52.22, the “BACS Tower of London raw score” value ([2]; Week 8) was 16.22 and the “BACS Verbal Fluency raw score” value ([2]; Week 8) was 45.22. The “BACS Verbal Memory raw score” value ([2]; Week 8) was 43.78.
